The results in this text go back to patent US20150141324A1 (priority 2011, published 2015).

In one assay the target is T1, furin (Homo sapiens, UniProt P09958).
T1 construct: endogenous in cells; host or cells: HEK293
The class given is cell-based.

The test system of assay [1] is Escherichia coli O157:H7 Shiga toxin.

Peptide text beside a SMILES is read from it. * marks the point of attachment. NH(4-amidinobenzyl) = N=C(N)c1ccc(CN*)cc1; Decanoyl = CCCCCCCCCC(=O)*; X2 = N=C(N)NC/C=C/CN*; CH2Cl = ClC*

T1 sequence (P09958 108-794): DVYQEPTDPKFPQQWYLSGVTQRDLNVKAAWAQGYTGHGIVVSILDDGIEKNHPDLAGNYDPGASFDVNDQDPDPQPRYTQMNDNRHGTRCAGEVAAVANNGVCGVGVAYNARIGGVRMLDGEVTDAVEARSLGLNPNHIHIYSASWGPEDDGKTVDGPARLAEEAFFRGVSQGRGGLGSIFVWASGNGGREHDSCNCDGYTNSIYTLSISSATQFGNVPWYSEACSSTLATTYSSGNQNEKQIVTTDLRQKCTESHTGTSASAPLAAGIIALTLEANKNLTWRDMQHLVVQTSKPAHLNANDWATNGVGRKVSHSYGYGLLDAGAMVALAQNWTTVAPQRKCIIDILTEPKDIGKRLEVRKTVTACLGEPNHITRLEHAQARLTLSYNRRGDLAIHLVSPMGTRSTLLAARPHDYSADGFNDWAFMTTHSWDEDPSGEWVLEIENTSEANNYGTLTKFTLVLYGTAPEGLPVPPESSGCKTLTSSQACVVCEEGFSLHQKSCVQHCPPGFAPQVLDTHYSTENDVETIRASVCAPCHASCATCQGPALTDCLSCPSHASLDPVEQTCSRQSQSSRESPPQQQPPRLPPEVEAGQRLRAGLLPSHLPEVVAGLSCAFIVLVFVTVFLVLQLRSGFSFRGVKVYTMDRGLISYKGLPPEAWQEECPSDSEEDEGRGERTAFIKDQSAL

One may read the IC50 as the concentration at which inhibition is half-maximal. For `C[C@H](NC(=O)[C@H](CCCNC(=N)N)NC(=O)CCCCCCCN)C(=O)N[C@@H](CCCNC(=N)N)C(=O)N[C@@H](CCCNC(=N)N)C(=O)N[C@@H](CCCNC(=N)N)C(=O)N[C@@H](CCCCN)C(=O)N[C@@H](CCCCN)C(=O)NN(CCCNC(=N)N)CC(=O)N[C@H](C(N)=O)[C@@H](C)O` [Aoc-RxxT[Azaβ3R]^P1], the “potency against furin in cell fusion inhibition, compared to RxxT control peptide” value at furin is recorded as “increased potency”. In addition, in assay [1], the concentration for half-maximal inhibition (IC50) is 16.7 µM and the “IC50 described in words” value was “similar”.
Consider `CCCCCCCCCC(=O)N[C@@H](CCCNC(=N)N)C(=O)N[C@H](C(=O)N[C@@H](CCCCN)C(=O)N[C@@H](CCCNC(=N)N)C(=O)CCl)[C@@H](C)O` [DEC-RTKR-CMK, reference compound] (Decanoyl-RTKR-CH2Cl), for which, in assay [1], the midpoint of inhibition, the IC50, lay at 11.5 µM.
Turning to `CC(=O)N[C@@H](CCCNC(=N)N)C(=O)N[C@@H](C)C(=O)N[C@@H](CCCNC(=N)N)C(=O)N[C@@H](CCCNC(=N)N)C(=O)N[C@@H](CCCNC(=N)N)C(=O)N[C@@H](CCCCN)C(=O)N[C@@H](CCCCN)C(=O)N[C@@H](CCCNC(=N)N)C(=O)N[C@H](C(N)=O)[C@@H](C)O` [RxxT, Ac-R-A-R-R-R-K-K-R-T-NH2, reference compound], the IC50 in assay [1] is over 1000 µM.
In the case of `CC(=O)NN(CCCNC(=N)N)CC(=O)N[C@@H](C)C(=O)N[C@@H](CCCNC(=N)N)C(=O)N[C@@H](CCCNC(=N)N)C(=O)N[C@@H](CCCNC(=N)N)C(=O)N[C@@H](CCCCN)C(=O)N[C@@H](CCCCN)C(=O)NN(CCCNC(=N)N)CC(=O)N[C@H](C(N)=O)[C@@H](C)O` [RxxT[Azaβ3R]^P1-P8], at furin, the “potency against furin in cell fusion inhibition, compared to RxxT control peptide” value was “increased potency”. Also, in assay [1], the IC50 is 20.8 µM and the “IC50 described in words” value was “similar”.
The matching figures for `CC(=O)N[C@@H](CCCNC(=N)N)C(=O)N[C@@H](C)C(=O)N[C@@H](CCCNC(=N)N)C(=O)N[C@@H](CCCNC(=N)N)C(=O)N[C@@H](CCCNC(=N)N)C(=O)N[C@@H](CCCCN)C(=O)N[C@@H](CCCCN)C(=O)NN(CCCNC(=N)N)CC(=O)N[C@H](C(N)=O)[C@@H](C)O` [RxxT[Azaβ3R]^P1]: “increased potency”, 314 µM and “low IC50 values”.
In assay [1], `CC(=O)N[C@@H](CCCNC(=N)N)C(=O)N[C@@H](C)C(=O)N[C@@H](CCCNC(=N)N)C(=O)N[C@@H](CCCNC(=N)N)C(=O)N[C@@H](CCCNC(=N)N)C(=O)N[C@@H](CCCCN)C(=O)N[C@@H](CCCCN)C(=O)NCc1ccc(C(=N)N)cc1` [Rxx[AMBA]^P1] (Ac-RARRRKK-{NH(4-amidinobenzyl)}) returned an IC50 of over 1000 µM.
On to `CC(=O)N[C@@H](CCCNC(=N)N)C(=O)N[C@@H](C)C(=O)N[C@@H](CCCNC(=N)N)C(=O)N[C@@H](CCCNC(=N)N)C(=O)N[C@@H](CCCNC(=N)N)C(=O)N[C@@H](CCCCN)C(=O)N[C@@H](CCCCN)C(=O)NC/C=C/CNC(=N)N` [Rxx[ΔAR-CO2]^P1] (Ac-RARRRKK-X2; N-terminus and C-terminus assumed), for which the “potency against furin in cell fusion inhibition, compared to RxxT control peptide” value at furin is reported as “increased potency”. Further, in assay [1], inhibition was half-maximal at 71 µM (IC50) and the “IC50 described in words” value is recorded as “low IC50 values”.
